Data set [1] is described as follows: Cell culture uptake of Re-188 versus Tc-99m labeled EC-agents. It is filed as cell-based. Here is the method:
To develop EC-DG in a kit form, EC-DG (10 mg) dissolved in 0.2 ml of water was freeze dried with tin chloride (2 mg in 0.2 ml of water) and gluconate (3 mg) in a 10 ml medi-vial and stored at room temperature prior to labeling. During labeling, the freeze dried powder was reconstituted in saline (0.5 ml) and pertechnate (10 mCi) was added. The kit was heated at 55° C. for 30 min (or 75° C. for 15 min). Radiochemical purity of ^99mTc-EC-DG was greater than 95% as determined by radio-TLC (saline, Rf: 0.8)(FIG. 39). A similar method could be applied to other EC-agents such as EC-metronidazole (EC-MN)(FIG. 40) and EC-penciclovir (also known as EC-Guan).

Data set [2] is described as follows: In vitro cell culture of ^99mTc-EC-DG with or without transition chelators. It is filed as cell-based. Particulars: kit formulation. The text has this: It may also be important to include an antioxidant and a transition chelator in the composition to prevent oxidation of the ethylenedicysteine. For example, the antioxidant may be vitamin C (ascorbic acid). However, other antioxidants known to those of ordinary skill in the art, such as tocopherol, pyridoxine, thiamine, or rutin, may also be used. Any transition chelator known to those of ordinary skill in the art may be used in conjunction with the present invention. Examples of transition chelators include glucoheptonate, gluconate, glucarate, citrate, and tartarate.

For data set [3], the system named is human lung cancer cells (A549 tumor cell line). Put plainly: Biodistribution in lung tumor-bearing nude mice. Particulars: for Biodistribution Blood / Biodistribution Brain / Biodistribution Heart / Biodistribution Intestine / Biodistribution Kidney / Biodistribution Liver / Biodistribution Lung / Biodistribution Muscle / Biodistribution Spleen / Biodistribution Stomach / Biodistribution Thyroid / Biodistribution Tumor / Tumor/Blood / Tumor/Lung / Tumor/Muscle: intravenously. Type of data set: in vivo, athymic nude mice. Here is the method: Female athymic nude mice (NCr-nu/nu, NCI, Bethasda, Md.) were inoculated with human lung cancer cells (A549 tumor cell line, 3×10^6 cells/mouse, intramuscular) by one author in the mid-dorsal region. After the tumor reached 6 mm, separate biodistribution studies using ^99mTc-EC-DG and 18F-FDG were conducted. Each received ^99mTc-EC-DG or 18F-FDG intravenously (n=3/time point). The injection activity was 1-3 μCi/mouse. The injected mass of ^99mTc-EC-DG was 0.2 mg/rodent.

Data set [4] relates to 13762 tumor cell line mammary tumor. Put plainly: Gamma scintigraphic imaging in Fischer 344 rats with 13762 mammary tumor. Type of data set: in vivo. As to conditions: 0.5, 2 and 4 hours after i.v. injection of 300 μCi. Here is the method:
Female Fischer 344 rats (250-275 g each) (Harlan, Inc., Indianapolis, Ind.) were inoculated with mammary tumor cells by one author from the 13762 tumor cell line (s.c. 10^6 cells/rat, a tumor cell line specific to Fischer rats). After 8-10 days, tumor volumes of 0.3-0.6 cm were measured. Scintigraphic images were obtained 0.5, 2 and 4 hours after i.v. injection of 300 μCi of ^99mTc-EC or ^99mTc-EC-DG (n=3/agent, total 6 rats). ROI between tumor tissue and muscle (at symmetric site) was used to determine tumor/non-tumor ratios. The smallest tumor volume that could be detected by ^99mTc-EC-DG was 3 mm.

Data set [5] relates to human ovarian cancer cells. As to conditions: 4-6 μCi/50,000 cells/well, 0.5-2 hrs.
In data set [6] the test system is mammary tumor. Put plainly: Scintigraphic imaging in mammary (breast) tumor-bearing rats. Type of data set: in vivo. Particulars: 0.1-4 hrs, 0.1 mCi/rat, iv.
Protocol: Scintigraphic imaging studies was performed in mammary tumor-bearing rats at 0.5-4 hrs (0.3 mCi/rat, n=3, iv). Control group was administered ^99mTc-EC. Computer-outlined region of interest was used to determine tumor uptake (counts/pixel) and tumor/nontumor count density ratios.
Scintigraphic imaging studies was performed in mammary tumor-bearing rats at 0.5-4 hrs (0.3 mCi/rat, n=3, iv). Control group was administered ^99mTc-EC.
Scintigraphic imaging studies was performed in mammary tumor-bearing rats at 0.5-4 hrs (0.1 mCi/rat, n=3, iv). Control group was administered ^99mTc-EC.
Scintigraphic imaging studies was performed in breast tumor-bearing rats at 0.5-4 hrs (0.1 mCi/rat, n=3, iv). Control group was administered ^99mTc-EC.
Scintigraphic imaging studies was performed in breast tumor-bearing rats at 0.1-4 hrs (0.1 mCi/rat, n=3, iv). Control group was administered ^99mTc-EC.
The test system of data set [7] is RBA CRL-1747 (breast cancer cells). Put plainly: In vitro cellular uptake in breast cancer cells. Type of data set: cell-based. Particulars: 0.5-2 hrs, 50,000 cells/well. The text has this: There was more uptake in ^99mTc-EC-carnitine than ^99mTc-EC (FIG. 16).
The test system of data set [8] is human ovarian and uterine cancer cells. In words: In vitro cellular uptake in human ovarian and uterine cancer cells. As to conditions: 4-6 μCi/50,000 cells/well, 0.5-2 hrs. Type of data set: cell-based.
Protocol: An in vitro cell culture using tumor cells was incubated with ^99mTc-EC-penciclovir (4-6 μCi/50,000 cells/well) at 0.5-2 hrs in human ovarian and uterine cancer cells.
For data set [9], the system named is human prostate cancer cells (LNCap, PC-3). In words: In vitro cellular uptake in human prostate cancer cells. As to conditions: 4-6 μCi/100,000 cells/well, 0.5-2 hrs, LNCap and PC-3. It is filed as cell-based. Here is the method:
An in vitro cell culture using tumor cells was incubated with ^99mTc-EC-LHRH (4-6 μCi/100,000 cells/well) at 0.5-2 hrs in human prostate cancer cells. Two types cell lines were used. They are either sensitive to androgen (LNCap) or unresponsive to androgen (PC-3) therapy.

Data set [10] relates to RBA CRL-1747 breast cancer cells. In words: In vitro blocking study of ^99mTc-EC-angiostatin uptake with unlabeled angiostatin. Type of data set: cell-based. As to conditions: unlabeled angiostatin 0-200 μM, 0.5-2 hrs, R^2=0.998; read-out: IC-50 of angiostatin (inhibition of ^99mTc-EC-angiostatin uptake). Here is the method:
The IC-50 of angiostatin was 176 μM (R^2=0.998) (FIG. 3).

Ends that are not written are not given here.

With `Nc1nc2c(ncn2CCC(CO)CNC(=O)[C@H](CS)NCCN[C@@H](CS)C(=O)NCC(CO)CCn2cnc3c(=O)[nH]c(N)nc32)c(=O)[nH]1` (stereo partly shown) [EC-Guan], the “uptakes of Re-188 versus Tc-99m labeled agent” value in [1] is “no marked difference between uptakes”.
Take `O=C(NC1C(O)OC(CO)C(O)C1O)C1C[S][99Tc]23(=[O])[S]CC(C(=O)NC4C(O)OC(CO)C(O)C4O)[N]2CC[N]13` (stereo not shown) [^99mTc-EC-DG]: the “stability with or without transition chelators (gluconate and glucarate)” value in [2] was “does not interfere with the stability”. Besides, in [3] (30 min), the “Biodistribution Blood” value is reported as 1.607 ± 0.389 % of injected dose per gram of tissue weight, the “Biodistribution Brain” value is given as 0.058 ± 0.008 % of injected dose per gram of tissue weight, the “Biodistribution Heart” value was 0.611 ± 0.193 % of injected dose per gram of tissue weight and the “Biodistribution Intestine” value is recorded as 0.510 ± 0.093 % of injected dose per gram of tissue weight. Besides, in data set [3] (30 min), the “Biodistribution Kidney” value is 6.726 ± 1.842 % of injected dose per gram of tissue weight, the “Biodistribution Liver” value is listed as 5.674 ± 2.089 % of injected dose per gram of tissue weight, the “Biodistribution Lung” value is recorded as 1.048 ± 0.259 % of injected dose per gram of tissue weight and the “Biodistribution Muscle” value was 0.264 ± 0.072 % of injected dose per gram of tissue weight. In addition, in [3] (30 min), the “Biodistribution Spleen” value is recorded as 3.240 ± 1.709 % of injected dose per gram of tissue weight, the “Biodistribution Stomach” value is 0.540 ± 0.113 % of injected dose per gram of tissue weight, the “Biodistribution Thyroid” value is reported as 0.929 ± 0.212 % of injected dose per gram of tissue weight and the “Biodistribution Tumor” value is given as 0.787 ± 0.163 % of injected dose per gram of tissue weight. In addition, in data set [3] (30 min), the Tumor/Blood stood at 0.499 ± 0.022, the Tumor/Lung was 0.769 ± 0.047 and the Tumor/Muscle was 3.352 ± 0.749. Moreover, in data set [3] (2 h), the “Biodistribution Blood” value is reported as 0.977 ± 0.267 % of injected dose per gram of tissue weight, the “Biodistribution Brain” value is listed as 0.042 ± 0.006 % of injected dose per gram of tissue weight, the “Biodistribution Heart” value was 0.336 ± 0.080 % of injected dose per gram of tissue weight and the “Biodistribution Intestine” value is recorded as 0.417 ± 0.110 % of injected dose per gram of tissue weight. Further, in data set [3] (2 h), the “Biodistribution Kidney” value is given as 5.687 ± 1.540 % of injected dose per gram of tissue weight, the “Biodistribution Liver” value is listed as 5.807 ± 1.708 % of injected dose per gram of tissue weight, the “Biodistribution Lung” value was 0.721 ± 0.210 % of injected dose per gram of tissue weight and the “Biodistribution Muscle” value is reported as 0.148 ± 0.039 % of injected dose per gram of tissue weight. For the same compound, in [3] (2 h), the “Biodistribution Spleen” value is recorded as 4.205 ± 1.374 % of injected dose per gram of tissue weight, the “Biodistribution Stomach” value is given as 0.439 ± 0.138 % of injected dose per gram of tissue weight, the “Biodistribution Thyroid” value is given as 0.665 ± 0.207 % of injected dose per gram of tissue weight and the “Biodistribution Tumor” value is given as 0.415 ± 0.123 % of injected dose per gram of tissue weight. Further, in [3] (2 h), the Tumor/Blood was 0.424 ± 0.022, the Tumor/Lung is reported as 0.587 ± 0.046 and the Tumor/Muscle is 2.754 ± 0.120. Besides, in [3] (4 h), the “Biodistribution Blood” value is 0.787 ± 0.152 % of injected dose per gram of tissue weight, the “Biodistribution Brain” value was 0.042 ± 0.006 % of injected dose per gram of tissue weight, the “Biodistribution Heart” value is given as 0.318 ± 0.071 % of injected dose per gram of tissue weight and the “Biodistribution Intestine” value is given as 0.374 ± 0.073 % of injected dose per gram of tissue weight. For the same compound, in data set [3] (4 h), the “Biodistribution Kidney” value was 4.318 ± 0.890 % of injected dose per gram of tissue weight, the “Biodistribution Liver” value is on record as 6.656 ± 1.786 % of injected dose per gram of tissue weight, the “Biodistribution Lung” value is 0.606 ± 0.128 % of injected dose per gram of tissue weight and the “Biodistribution Muscle” value is listed as 0.147 ± 0.022 % of injected dose per gram of tissue weight. For the same compound, in [3] (4 h), the “Biodistribution Spleen” value is given as 5.933 ± 3.194 % of injected dose per gram of tissue weight, the “Biodistribution Stomach” value is reported as 0.541 ± 0.119 % of injected dose per gram of tissue weight, the “Biodistribution Thyroid” value is 0.692 ± 0.119 % of injected dose per gram of tissue weight and the “Biodistribution Tumor” value is 0.414 ± 0.161 % of injected dose per gram of tissue weight. In data set [3] (4 h), this compound yielded a Tumor/Blood of 0.502 ± 0.120, a Tumor/Lung of 0.640 ± 0.120 and a Tumor/Muscle of 2.795 ± 0.982. In data set [3] (as a function of time), the “tumor/muscle and tumor/brain ratios, ^99mTc-EC-DG versus 18F-FDG” value is “higher tumor/muscle and tumor/brain ratios”. Further, the organs visualized result in data set [4] is “Heart, kidneys, liver, and bladder were visualized”.
Take `CN(C)c1ncnc2c1ncn2C1OC(CO)C(NC(=O)C2C[S][99Tc]34(=[O])[S]CC(C(=O)O)[N]3CC[N]24)C1O` (stereo not shown) [^99mTc-EC-adenosine]: the “cellular uptake compared to ^99mTc-EC” value in data set [5] is listed as “significant increased uptake”.
For `C[N+](C)(C)CCCCC(NC(=O)C1C[S][99Tc]23(=[O])[S]CC(C(=O)NC(CCCC[N+](C)(C)C)C(=O)[O-])[N]2CC[N]13)C(=O)[O-]` (stereo not shown) [^99mTc-EC-carnitine], the “count density ratios tumor/muscle and heart/muscle” value in [6] is given as “High count density ratios”. The “cellular uptake compared to ^99mTc-EC” value in data set [7] is on record as “more uptake”.
As to `Nc1nc2c(ncn2CCC(CO)CNC(=O)C2C[S][99Tc]34(=[O])[S]CC(C(=O)NCC(CO)CCn5cnc6c(=O)[nH]c(N)nc65)[N]3CC[N]24)c(=O)[nH]1` (stereo not shown) [^99mTc-EC-penciclovir], the “cellular uptake compared to ^99mTc-EC” value in [8] is given as “significant increased uptake”.
With “^99mTc-EC-LHRH (QHWSYGLRPG; also: 99mTc-ethylenedicysteine (EC) label, attachment site not given here; UniProt P01148 24-33, looked up)”, the “cellular uptake compared to ^99mTc-EC” value in data set [9] was “significant increased uptake”.
Take angiostatin: the IC50 in [10] turned out to be 176 µM.

The values are drawn from patent US20040166058A1, “Ethylenedicysteine (EC)-drug conjugates, compositions and methods for tissue specific disease imaging” (Board of Regents, The University of Texas System, priority 2002, published 2004).
